According to patent US6444683B2, “17-azolyl steroids useful as androgen synthesis inhibitors” (University of Maryland at Baltimore, priority 1997, dated 2002):
“Also recorded” adds a separate entry of the source. Where two headings read alike, the source gives them in different places.

Assays:
[1] = small group of men with advanced prostatic cancer; cited from earlier work
Human P45017α = target: T1, Human P45017α (Homo sapiens, UniProt P05093); assay: Inhibition of human testicular microsomal P45017α (lyase activity, release of C3H3COOH from [21-3H3]-17α-hydroxypregnenolone); format: biochemical
T1 construct: Human testicular microsomes were prepared from human testes; from tissue; host or cells: human testes (untreated prostatic cancer patients undergoing orchidectomy), microsomal fraction
T1 sequence (P05093 1-508): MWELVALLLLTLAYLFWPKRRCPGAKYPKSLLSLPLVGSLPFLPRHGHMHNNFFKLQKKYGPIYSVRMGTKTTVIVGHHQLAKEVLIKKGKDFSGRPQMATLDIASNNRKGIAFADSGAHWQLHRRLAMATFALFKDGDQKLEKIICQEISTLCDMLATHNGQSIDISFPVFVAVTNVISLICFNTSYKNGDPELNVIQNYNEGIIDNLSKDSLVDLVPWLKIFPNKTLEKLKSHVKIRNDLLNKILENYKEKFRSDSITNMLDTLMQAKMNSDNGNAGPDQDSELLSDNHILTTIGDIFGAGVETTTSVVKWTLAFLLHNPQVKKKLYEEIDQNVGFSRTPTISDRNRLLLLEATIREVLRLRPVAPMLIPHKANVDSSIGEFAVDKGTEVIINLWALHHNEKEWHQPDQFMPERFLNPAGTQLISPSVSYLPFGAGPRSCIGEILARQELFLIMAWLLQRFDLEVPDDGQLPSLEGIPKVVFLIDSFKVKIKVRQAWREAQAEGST
Procedure: (§1) The microsomes were stored at −70° C. until assayed. Just before use, the thawed microsomes were diluted with 0.1 M phosphate buffer (pH 7.4) to appropriate concentrations.
(§2) This assay measures only the lyase activity of the P45017α enzyme.
(§3) IC50 values for inhibitors were calculated from the linear regression line in the plot of logit of lyase activity versus log of inhibitor concentration. […] Each inhibitor was examined at three concentrations.

[2] = target: T2, human prostate 5α-reductase (Homo sapiens, UniProt P31213); assay: Inhibition of human prostate 5α-reductase in BPH microsomes (conversion of [7-3H]-testosterone to DHT); format: biochemical
T2 construct: The enzymatic reactions were initiated by addition of human BPH microsomes; from tissue; host or cells: human benign prostatic hyperplasia (BPH) tissue, microsomal fraction
T2 sequence (P31213 1-254): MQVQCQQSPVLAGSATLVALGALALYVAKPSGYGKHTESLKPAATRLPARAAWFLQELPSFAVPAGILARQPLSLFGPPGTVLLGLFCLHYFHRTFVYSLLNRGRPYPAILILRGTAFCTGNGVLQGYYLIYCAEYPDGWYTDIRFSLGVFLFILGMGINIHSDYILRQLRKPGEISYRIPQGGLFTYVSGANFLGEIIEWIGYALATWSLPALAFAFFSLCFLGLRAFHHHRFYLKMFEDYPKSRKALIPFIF
Procedure: […] The ethanol was evaporated to dryness under a gentle stream of air. […] The enzymatic reactions were initiated by addition of human BPH microsomes (about 180 μg of microsomal protein in 500 μl of phosphate buffer) in a total volume of 1.0 ml, and the incubations were performed for 10 min under oxygen in a shaking water bath at 37° C. The incubations were terminated by placing the sample tubes on ice and the addition of ether. Also, [^14C]-DHT (3000 dpm) and cold DHT (50 μg) were added to each tube as an internal standard and visualization marker, respectively. The steroids were extracted with ether and separated by TLC (chloroform:ether, 80:20) and visualized by exposure to iodine vapor. The extracts were analyzed for ^3H and ^14C using a liquid scintillation counter. The percentage conversion of [7-^3H]-testosterone to [^3H]-dihydrotestosterone was calculated and used to determine 5α-reductase activity.

Rat P45017α = target: T3, Rat P45017α (Rattus norvegicus, UniProt P11715); assay: Inhibition of rat testicular microsomal P45017α (lyase activity); format: biochemical
T3 sequence (P11715 1-507): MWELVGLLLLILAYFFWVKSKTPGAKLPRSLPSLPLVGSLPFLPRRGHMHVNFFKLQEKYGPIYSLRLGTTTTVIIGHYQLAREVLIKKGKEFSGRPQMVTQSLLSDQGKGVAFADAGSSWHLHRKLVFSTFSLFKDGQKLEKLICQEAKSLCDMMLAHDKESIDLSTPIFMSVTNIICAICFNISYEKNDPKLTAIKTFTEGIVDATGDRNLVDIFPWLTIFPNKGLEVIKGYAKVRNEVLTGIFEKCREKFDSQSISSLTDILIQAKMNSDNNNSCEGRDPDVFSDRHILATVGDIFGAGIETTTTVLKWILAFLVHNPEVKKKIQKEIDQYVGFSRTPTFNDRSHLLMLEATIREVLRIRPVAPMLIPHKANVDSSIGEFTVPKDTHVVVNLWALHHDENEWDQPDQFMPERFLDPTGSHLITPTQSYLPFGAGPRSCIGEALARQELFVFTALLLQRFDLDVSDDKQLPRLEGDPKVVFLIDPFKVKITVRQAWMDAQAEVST
Procedure: as §1, §2, §3

[3] = test system: LNCaP human prostatic cancer cell; assay: Androgen-stimulated growth of LNCaP human prostatic cancer cells in vitro
[4] = Stability at room temperature (TLC evidence); format: physicochemical
Procedure: The method followed that described for Synthesis Example 14, but using 3β-acetoxy-17-(1H-tetrazol-1-yl)-16-formylandrosta-5,16-diene (Compound 23) (140 mg, 0.3415 mmol). Purification of the crude product by FCC (silica gel, pet. ether/EtOAc (3:1)) gave Compound 26 (45 mg, 34.5%); ^1H NMR (300 MHz, CDCl3): δ 1.08 (3H, s, 18-Me), 1.20 (3H, s, 19-Me), 2.04 (3H, s, 3β-OAc), 4.62 (1H, m, 3α-H), 5.42 (1H, d, J=4.6Hz, 6-H), 6.00 (1H, s, 16-H) and 8.93 (1H, s, 5′-H). […] (TLC evidence) and was used for the subsequent reaction without further characterization.

[5] = test system: LNCaP human prostatic cancer cell; conditions: cited from earlier work
serum DHT levels = conditions: BPH patients; cited from earlier work

## C[C@]12CCC(=O)C(O)=C1CC[C@@H]1[C@@H]2CC[C@]2(C)C(=O)CC[C@@H]12 [Compound 4-OHA, 4-hydroxyandrostene-3,17-dione]
[1]
  Patients with subjective responses: 80%

## C[C@]12CC[C@H](O)CC1=CC[C@@H]1[C@@H]2CC[C@]2(C)C(n3ccnn3)=CC[C@@H]12 [Compound 20, 3β-hydroxy-17-(1H-1,2,3-triazol-1-yl)androsta-5,16-diene]
Human P45017α
  IC50: 13 ± 1 nM
Human P45017α; Human P45017α Ki
  Ki: 1.4 nM
Human P45017α; human testicular microsomes
  Inhibition of human P45017α, in words: potent inhibitors; also recorded: powerful inhibitors
Human P45017α; inhibitor 150 nM, substrate 17α-hydroxypregnenolone 10 μM, mean of two determinations, read-out: % Inhibition of human P45017α
  inhibition at 0.15 µM: 94%
[2]; human BPH microsomes, mean ± SDM of at least two experiments, read-out: 5α-Reductase IC50
  IC50: ~10000 nM
Rat P45017α
  IC50: 10 ± 0.4 nM
[3]; Homo sapiens, LNCaP, read-out: Inhibition of DHT-induced growth of LNCaP cells
  inhibition at 5 µM: 100%
[3]; Homo sapiens, LNCaP, read-out: Inhibition of testosterone-stimulated growth of LNCaP cells
  inhibition at 2.5 µM: 100%
[3]; concentration range 0.5-5.0 μM
  Toxicity to LNCaP cells: nor was toxic to the cells
[3]; inferred from inhibition of androgen-stimulated LNCaP growth
  Antiandrogenic effects: strong antiandrogenic effects

## CC(=O)O[C@H]1CC[C@@]2(C)C(=CC[C@@H]3[C@@H]2CC[C@]2(C)C(n4cnnn4)=CC[C@@H]32)C1 [Compound 26, 3β-acetoxy-17-(1H-tetrazol-1-yl)androsta-5,16-diene]
[4]
  Stability at room temp.: not particularly stable at room temp.

## C[C@]12CCC(=O)C[C@@H]1CC[C@@H]1[C@@H]2CC[C@]2(C)[C@@H](O)CC[C@@H]12 [DHT, dihydrotestosterone]
[5]; 30 pM DHT
  Stimulation of proliferation of LNCaP cells compared to control: 5 fold

## CC(C)(C)NC(=O)[C@H]1CC[C@H]2[C@@H]3CC[C@H]4NC(=O)C=C[C@]4(C)[C@H]3CC[C@]12C [Finasteride, reference compound]
Serum DHT levels
  Reduction of serum DHT levels: 65-80%
[2]
  IC50: 33 ± 2 nM

## C[C@]12CC[C@H]3[C@@H](CCC4=CC(=O)CC[C@@]43C)[C@@H]1CC[C@@H]2O [testosterone]
[5]; 0.1 nM testosterone
  Increase of growth of LNCaP cells compared to vehicle-treated cells: 6 fold
